Data published in patent US12540131B2 (Merck Sharp & Dohme LLC, priority 2019, dated 2026).

Molecular target: GST tagged truncated human mutant G2019S LRRK2 (Homo sapiens (Human), UniProt Q5S007, G2019S)
Assay: LRRK2 Km ATP LanthaScreen Assay
Type: biochemical
Conditions: G2019S LRRK2, 134 μM ATP (Km ATP), mean values
How it was run: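 Enzyme (GST-tagged, truncated) was preincubated with compound for 15 min at RT in 50 mM Tris pH 8.5, 10 mM MgCl2, 0.01% Brij-35, 1 mM EGTA, 2 mM DTT and 0.05 mM orthovanadate. Fluorescein-LRRKtide and 134 μM ATP (Km) were then added for 90 min. EDTA and Tb-anti-pERM antibody stopped the reaction; the TR-FRET 520/495 ratio gave 4-parameter IC50s, reported as mean pIC50.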

Chain of GST tagged truncated human mutant G2019S LRRK2 (Q5S007 970-2527 G2019S): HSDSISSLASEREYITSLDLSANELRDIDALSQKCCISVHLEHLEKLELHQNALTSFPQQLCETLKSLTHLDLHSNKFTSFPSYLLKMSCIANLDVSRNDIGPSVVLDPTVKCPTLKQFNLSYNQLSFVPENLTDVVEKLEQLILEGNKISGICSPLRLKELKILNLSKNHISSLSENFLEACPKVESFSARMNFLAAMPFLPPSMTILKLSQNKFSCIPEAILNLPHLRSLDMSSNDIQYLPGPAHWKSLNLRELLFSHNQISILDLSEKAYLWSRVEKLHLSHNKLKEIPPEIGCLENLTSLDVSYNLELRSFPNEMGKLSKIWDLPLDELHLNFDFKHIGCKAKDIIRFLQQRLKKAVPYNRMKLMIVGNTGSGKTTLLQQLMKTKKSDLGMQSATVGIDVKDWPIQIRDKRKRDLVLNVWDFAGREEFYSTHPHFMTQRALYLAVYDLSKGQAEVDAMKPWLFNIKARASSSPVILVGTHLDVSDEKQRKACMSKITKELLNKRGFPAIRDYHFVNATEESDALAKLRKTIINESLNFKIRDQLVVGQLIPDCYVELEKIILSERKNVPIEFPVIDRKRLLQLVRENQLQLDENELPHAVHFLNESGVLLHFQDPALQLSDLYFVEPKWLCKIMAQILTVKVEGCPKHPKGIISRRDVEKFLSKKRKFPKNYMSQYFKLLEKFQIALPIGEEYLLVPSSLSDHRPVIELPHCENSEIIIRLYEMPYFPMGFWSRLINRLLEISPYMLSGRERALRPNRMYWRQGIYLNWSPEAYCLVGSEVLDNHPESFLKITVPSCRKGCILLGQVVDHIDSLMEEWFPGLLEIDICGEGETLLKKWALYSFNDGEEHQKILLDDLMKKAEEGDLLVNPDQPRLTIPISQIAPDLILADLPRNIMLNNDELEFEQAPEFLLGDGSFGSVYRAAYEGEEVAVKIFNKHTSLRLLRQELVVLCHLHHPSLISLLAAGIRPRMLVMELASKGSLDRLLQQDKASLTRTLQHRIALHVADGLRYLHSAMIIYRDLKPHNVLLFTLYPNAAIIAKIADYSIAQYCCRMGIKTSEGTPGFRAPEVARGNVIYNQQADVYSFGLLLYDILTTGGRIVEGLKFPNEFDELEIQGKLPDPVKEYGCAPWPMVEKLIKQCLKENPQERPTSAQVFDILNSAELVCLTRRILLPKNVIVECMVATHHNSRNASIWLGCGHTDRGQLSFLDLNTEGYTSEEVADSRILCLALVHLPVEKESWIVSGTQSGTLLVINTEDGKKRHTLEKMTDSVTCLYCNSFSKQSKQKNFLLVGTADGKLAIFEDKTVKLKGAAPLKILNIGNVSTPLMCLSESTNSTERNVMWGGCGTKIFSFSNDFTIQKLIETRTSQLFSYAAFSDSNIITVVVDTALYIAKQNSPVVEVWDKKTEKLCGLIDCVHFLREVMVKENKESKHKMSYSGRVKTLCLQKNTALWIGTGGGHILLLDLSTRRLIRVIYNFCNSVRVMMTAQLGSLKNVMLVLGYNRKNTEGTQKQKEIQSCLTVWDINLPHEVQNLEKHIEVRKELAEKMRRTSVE

Row | Structure (SMILES) | LRRK2 pIC50
1 | Cc1c(Nc2ncc3cc(Cl)c(C4CCN(C[C@@H](O)c5cc(F)cc(F)c5)CC4)cc3n2)cnn1C1CC1 [Ex-4.197, (1S)-2-(4-{6-chloro-2-[(1-cyclopropyl-5-methyl-1H-pyrazol-4-yl)amino]quinazolin-7-yl}piperidin-1-yl)-1-(3,5-difluorophenyl)ethan-1-ol] | 8.76
2 | Cc1c(Nc2ncc3cc(Cl)c(C4CCN(C[C@H](O)c5cc(F)cc(F)c5)CC4)cc3n2)cnn1C1CC1 [Ex-4.198, (1R)-2-(4-{6-chloro-2-[(1-cyclopropyl-5-methyl-1H-pyrazol-4-yl)amino]quinazolin-7-yl}piperidin-1-yl)-1-(3,5-difluorophenyl)ethan-1-ol] | 7.88
3 | Cc1c(Nc2ncc3cc(Cl)c(C4CCN(C[C@H](O)c5ccc(F)c(F)c5)CC4)cc3n2)cnn1C1CC1 [Ex-4.199, (1R)-2-(4-{6-chloro-2-[(1-cyclopropyl-5-methyl-1H-pyrazol-4-yl)amino]quinazolin-7-yl}piperidin-1-yl)-1-(3,4-difluorophenyl)ethan-1-ol] | 7.96
4 | Cc1c(Nc2ncc3cc(Cl)c(C4CCN(C[C@@H](O)c5ccc(F)c(F)c5)CC4)cc3n2)cnn1C1CC1 [Ex-4.200, (1S)-2-(4-{6-chloro-2-[(1-cyclopropyl-5-methyl-1H-pyrazol-4-yl)amino]quinazolin-7-yl}piperidin-1-yl)-1-(3,4-difluorophenyl)ethan-1-ol] | 8.76
5 | Cc1c(Nc2ncc3cc(Cl)c(C4CCN(C[C@H](O)c5ccc(F)cc5F)CC4)cc3n2)cnn1C1CC1 [Ex-4.201, (1R)-2-(4-{6-chloro-2-[(1-cyclopropyl-5-methyl-1H-pyrazol-4-yl)amino]quinazolin-7-yl}piperidin-1-yl)-1-(2,4-difluorophenyl)ethan-1-ol] | 8.19
6 | Cc1c(Nc2ncc3cc(Cl)c(C4CCN(C[C@@H](O)c5ccccc5F)CC4)cc3n2)cnn1C1CC1 [Ex-4.202, (1S)-2-(4-{6-chloro-2-[(1-cyclopropyl-5-methyl-1H-pyrazol-4-yl)amino]quinazolin-7-yl}piperidin-1-yl)-1-(2-fluorophenyl)ethan-1-ol] | 8.47
7 | Cc1c(Nc2ncc3cc(Cl)c(C4CCN(C[C@H](O)c5ccccc5F)CC4)cc3n2)cnn1C1CC1 [Ex-4.203, (1R)-2-(4-{6-chloro-2-[(1-cyclopropyl-5-methyl-1H-pyrazol-4-yl)amino]quinazolin-7-yl}piperidin-1-yl)-1-(2-fluorophenyl)ethan-1-ol] | 8.03
8 | Cc1c(Nc2ncc3cc(Cl)c(C4CCN(C[C@H](O)c5cc(F)ccc5F)CC4)cc3n2)cnn1C1CC1 [Ex-4.204, (1R)-2-(4-{6-chloro-2-[(1-cyclopropyl-5-methyl-1H-pyrazol-4-yl)amino]quinazolin-7-yl}piperidin-1-yl)-1-(2,5-difluorophenyl)ethan-1-ol] | 7.67
9 | Cc1c(Nc2ncc3cc(Cl)c(C4CCN(C[C@@H](O)c5cc(F)ccc5F)CC4)cc3n2)cnn1C1CC1 [Ex-4.205, (1S)-2-(4-{6-chloro-2-[(1-cyclopropyl-5-methyl-1H-pyrazol-4-yl)amino]quinazolin-7-yl}piperidin-1-yl)-1-(2,5-difluorophenyl)ethan-1-ol] | 8.40
10 | Cc1c(Nc2ncc3cc(Cl)c(C4CCN(C[C@H](O)c5cccc(F)c5F)CC4)cc3n2)cnn1C1CC1 [Ex-4.206, (1R)-2-(4-{6-chloro-2-[(1-cyclopropyl-5-methyl-1H-pyrazol-4-yl)amino]quinazolin-7-yl}piperidin-1-yl)-1-(2,3-difluorophenyl)ethan-1-ol] | 7.90
11 | Cc1c(Nc2ncc3cc(Cl)c(C4CCN(C[C@@H](O)c5cccc(F)c5F)CC4)cc3n2)cnn1C1CC1 [Ex-4.207, (1S)-2-(4-{6-chloro-2-[(1-cyclopropyl-5-methyl-1H-pyrazol-4-yl)amino]quinazolin-7-yl}piperidin-1-yl)-1-(2,3-difluorophenyl)ethan-1-ol] | 8.31
12 | Cc1c(Nc2ncc3cc(Cl)c(C4CCN(C[C@H](O)c5c(F)cccc5F)CC4)cc3n2)cnn1C1CC1 [Ex-4.208, (1R)-2-(4-{6-chloro-2-[(1-cyclopropyl-5-methyl-1H-pyrazol-4-yl)amino]quinazolin-7-yl}piperidin-1-yl)-1-(2,6-difluorophenyl)ethan-1-ol] | 7.96
13 | Cc1c(Nc2ncc3cc(Cl)c(C4CCN(C[C@@H](O)c5c(F)cccc5F)CC4)cc3n2)cnn1C1CC1 [Ex-4.209, (1S)-2-(4-{6-chloro-2-[(1-cyclopropyl-5-methyl-1H-pyrazol-4-yl)amino]quinazolin-7-yl}piperidin-1-yl)-1-(2,6-difluorophenyl)ethan-1-ol] | 8.16
14 | Cc1c(Nc2ncc3cc(Cl)c(C4CCN(CC5(O)CCOCC5)CC4)cc3n2)cnn1C1CC1 [Ex-4.210, 4-[(4-{6-chloro-2-[(1-cyclopropyl-5-methyl-1H-pyrazol-4-yl)amino]quinazolin-7-yl}piperidin-1-yl)methyl]oxan-4-ol] | 8.55
15 | COC[C@H](O)CN1CCC(c2cc3nc(Nc4cnn(C5CC5)c4C)ncc3cc2Cl)CC1 [Ex-4.211, (2R)-1-(4-{6-chloro-2-[(1-cyclopropyl-5-methyl-1H-pyrazol-4-yl)amino]quinazolin-7-yl}piperidin-1-yl)-3-methoxypropan-2-ol] | 9.15
16 | COC[C@@H](O)CN1CCC(c2cc3nc(Nc4cnn(C5CC5)c4C)ncc3cc2Cl)CC1 [Ex-4.212, (2S)-1-(4-{6-chloro-2-[(1-cyclopropyl-5-methyl-1H-pyrazol-4-yl)amino]quinazolin-7-yl}piperidin-1-yl)-3-methoxypropan-2-ol] | 8.75
17 | Cc1c(Nc2ncc3cc(Cl)c(C4CCN(C[C@H](O)c5ccc(F)cc5)CC4)cc3n2)cnn1C1CC1 [Ex-4.213, (1R)-2-(4-{6-chloro-2-[(1-cyclopropyl-5-methyl-1H-pyrazol-4-yl)amino]quinazolin-7-yl}piperidin-1-yl)-1-(4-fluorophenyl)ethan-1-ol] | 8.50
18 | Cc1c(Nc2ncc3cc(Cl)c(C4CCN(C[C@@H](O)c5ccc(F)cc5)CC4)cc3n2)cnn1C1CC1 [Ex-4.214, (1S)-2-(4-{6-chloro-2-[(1-cyclopropyl-5-methyl-1H-pyrazol-4-yl)amino]quinazolin-7-yl}piperidin-1-yl)-1-(4-fluorophenyl)ethan-1-ol] | 8.62
19 | Cc1c(Nc2ncc3cc(Cl)c(C4CCN(CC5(O)CCC5)CC4)cc3n2)cnn1C1CC1 [Ex-4.215, 1-[(4-{6-chloro-2-[(1-cyclopropyl-5-methyl-1H-pyrazol-4-yl)amino]quinazolin-7-yl}piperidin-1-yl)methyl]cyclobutan-1-ol] | 8.57
20 | Cc1c(Nc2ncc3cc(Cl)c(C4CCN(C[C@H](O)CN5CCCC5=O)CC4)cc3n2)cnn1C1CC1 [Ex-4.216, 1-[(2S)-3-(4-{6-chloro-2-[(1-cyclopropyl-5-methyl-1H-pyrazol-4-yl)amino]quinazolin-7-yl}piperidin-1-yl)-2-hydroxypropyl]pyrrolidin-2-one] | 9.05
21 | Cc1c(Nc2ncc3cc(Cl)c(C4CCN(CC(C)(C)O)CC4)cc3n2)cnn1C1CC1 [Ex-4.217, 1-(4-{6-chloro-2-[(1-cyclopropyl-5-methyl-1H-pyrazol-4-yl)amino]quinazolin-7-yl}piperidin-1-yl)-2-methylpropan-2-ol] | 8.57
22 | Cc1c(Nc2ncc3cc(Cl)c(C4CCN(C[C@]5(O)C[C@H](C#N)C5)CC4)cc3n2)cnn1C1CC1 [Ex-4.229, trans-3-[(4-{6-chloro-2-[(1-cyclopropyl-5-methyl-1H-pyrazol-4-yl)amino]quinazolin-7-yl}piperidin-1-yl)methyl]-3-hydroxycyclobutane-1-carbonitrile] | 8.95
23 | Cc1cc2cnc(Nc3cnn(C4(C)CC4)c3Cl)nc2cc1C1CCN(CCC#N)CC1 [Ex-5.2, 3-(4-(2-((5-chloro-1-(1-methylcyclopropyl)-1H-pyrazol-4-yl)amino)-6-methylquinazolin-7-yl)piperidin-1-yl)propanenitrile] | >9.20
24 | Cc1cc2cnc(Nc3cnn(C45CC(C4)C5)c3C)nc2cc1C1CCN(C2(C)COC2)CC1 [Ex-5.8, N-[1-(bicyclo[1.1.1]pentan-1-yl)-5-methyl-1H-pyrazol-4-yl]-6-methyl-7-[1-(3-methyloxetan-3-yl)piperidin-4-yl]quinazolin-2-amine] | >9.20
25 | N#Cc1cc2cnc(Nc3cnn(C4CC4)c3Cl)nc2cc1C1CCN(C2COC2)CC1 [Ex-6.3, 2-((5-chloro-1-cyclopropyl-1H-pyrazol-4-yl)amino)-7-(1-(oxetan-3-yl)piperidin-4-yl)quinazoline-6-carbonitrile] | 9.07
26 | FC1COCC1N1CC[C@@H](c2cc3nc(Nc4cnn(C5CC5(F)F)c4Cl)ncc3cc2Cl)C(F)C1 (stereo partly drawn) [Ex-7.1] | 9.01
27 | FC1COCC1N1CC[C@H](c2cc3nc(Nc4cnn(C5CC5(F)F)c4Cl)ncc3cc2Cl)C(F)C1 (stereo partly drawn) [Ex-7.2] | >9.20
28 | FC(F)(F)Cn1ncc(Nc2ncc3cc(Cl)c(C4CCN(C5COC5)CC4)cc3n2)c1Cl [Ex-8.1, 6-chloro-N-(5-chloro-1-(2,2,2-trifluoroethyl)-1H-pyrazol-4-yl)-7-(1-(oxetan-3-yl)piperidin-4-yl)quinazolin-2-amine] | >9.20
29 | FC(F)n1ncc(Nc2ncc3cc(Cl)c(C4CCN(C5COC5)CC4)cc3n2)c1Cl [Ex-8.2, 6-chloro-N-[5-chloro-1-(difluoromethyl)-1H-pyrazol-4-yl]-7-[1-(oxetan-3-yl)piperidin-4-yl]quinazolin-2-amine] | 8.83

Same assay, conditions: G2019S LRRK2, 134 μM ATP (Km ATP), mean values; read-out: LRRK2 pIC50 (converted)

Row | Structure (SMILES) | IC50 [nM]
30 | Cc1cc2cnc(Nc3cnn(C4(C)CC4)c3C)nc2cc1C1CCN(CCC#N)CC1 [Ex-5.1, 3-(4-(6-methyl-2-((5-methyl-1-(1-methylcyclopropyl)-1H-pyrazol4-yl)amino)quinazolin-7-yl)piperidin-1-yl)propanenitrile] | < 0.631
